In patent US9157904B2, “Wnt antagonists and methods of treatment and screening” (OncoMed Pharmaceuticals, Inc., priority 2010, dated 2015):

Assays:
PN13 tumors = assay: Muc16 immunohistochemistry of treated PN13 tumors; type: in vivo, NOD/SCID mice; details: vs control antibody
Procedure: The cell differentiation capability of FZD8-Fc was also evaluated in the OMP-PN13 pancreas tumor xenograft model. Dissociated OMP-PN13 cells (50,000 per animal) were injected subcutaneously into 6-8 week old male NOD/SCID mice. Tumor growth was monitored weekly and tumor measurements were initiated once tumors were palpable. On day 40 mice with average tumor volume of 114 mm^3 were randomized into 4 groups of 10 animals each. Animals were injected with either control antibody or FZD8-Fc (15 mg/kg). Administration of the FZD8-Fc and control antibody was performed via injection into the intraperitoneal cavity, twice weekly. After 19 days of treatment, the tumors were excised and immunohistochemistry analysis was performed using standard techniques. Briefly, tumors were fixed in formalin, embedded in paraffin, and tumor sections of 4 μm thickness were cut. After deparaffinization and hydration, the tumor sections were subjected to an antigen retrieval process in Tris buffer (pH 9.5). Sections were incubated with hydrogen peroxide (Sigma-Aldrich, St Louis, Mo.) for 10 minutes to block endogenous peroxidases. […]
Tumor sections from PN13 tumors treated with control antibody or FZD8-Fc were obtained and treated as described above. […] The bound antibody was detected using the immunohistochemistry protocol described above.

PN21 pancreas tumor = PN21 pancreas tumor xenograft, tumor growth; type: in vivo, NOD/SCID mice; details: FZD8-Fc 15 mg/kg i.p. once weekly
Procedure: The anti-tumor activity of FZD8-Fc (54F03) was evaluated in the PN21 pancreas tumor xenograft model. Dissociated OMP-PN21 cells (50,000 per animal) were injected subcutaneously into 6-8 week old male NOD/SCID mice. Tumor growth was monitored weekly and tumor measurements were initiated once tumors were palpable. On day 36, mice with average tumor volumes of 144 mm^3 were randomized into 4 groups of 9 animals each. Animals were injected with control antibody, FZD8-Fc (15 mg/kg), gemcitabine (2 mg/kg) or a combination of FZD8-Fc and gemcitabine. Administration of the FZD8-Fc and gemcitabine was performed via injection into the intraperitoneal cavity, once weekly. Tumors were measured twice a week and tumor volume was determined as described herein.

## 54F03: Fri domain of human FZD8 fused to human IgG1 Fc with GRA linker; SEQ ID NO:1
PN13 tumors
  cells expressing Muc16: increase in cells expressing Muc16
PN21 pancreas tumor
  reduction in tumor growth as compared to control: 66%
